We go through 3 molecules from PMC6482079 (European journal of pharmaceutical sciences : official …, 2019).

What is called EC50 is the midpoint of the concentration-response curve.

Molecules are shown by their SMILES.

The subject of test [1] is B/Wisconsin/1/2010 (Yamagata). As to the kind of experiment: Plaque reduction assay in ST6Gal I-overexpressing MDCK cells. Format: cell-based, influenza B virus. As to conditions: for Drug sensitivity: sensitivity of the strain to the named drug.
Test [2] has as its system B/Bris/60/2008 (Victoria). Described as above. Format: cell-based, influenza B virus. The following applies: for Drug sensitivity: sensitivity of the strain to the named drug.

Turning to `Cc1cc(OCc2nnc(SC3CCCC3)n2-c2cccnc2)ccc1-c1ccc(S(C)(=O)=O)cc1` [NMS-873], the “SI (selectivity index)” value in test [1] (CC50/EC50) turned out to be 78; in test [2] (CC50/EC50), 97. In addition, the EC50 in test [1] (Influenza B virus, MDCK) stood at 0.035 ± 0.005 µM; in test [2] (Influenza B virus, MDCK), 0.028 ± 0.008 µM.
`CCC(CC)O[C@@H]1C=C(C(=O)O)C[C@H](N)[C@H]1NC(C)=O` [Oseltamivir carboxylate]: the Drug sensitivity entry in test [1] and in test [2] was “Sensitive” in each case.
Turning to `NC12CC3CC(CC(C3)C1)C2` [Amantadine, amantadine], the Drug sensitivity entry in test [1] and in test [2] was “Resistant” throughout.
